Assay results from patent US20150284347A1, “NEW BENZENE SULFONAMIDE THIAZOLE COMPOUNDS” (INSERM (INSTITUT NATIONAL DE LA SANTÉ ET DE LA RECHERCHE …, priority 2012, published 2015).

Tests used:
colon cells HT29 = test: Trypan blue cell viability, HT29; type: cell-based; settings: 10 μM, HT29, trypan blue exclusion, FIG. 1
Method: (§1) Cell viability was assessed by measuring the number of cells alive in samples of two different kind of prostate cells, respectively noted LNCAP and PC3, of breast cells noted MCF7, of colon cells noted HT29, of metastatic melanoma cell lines A375 and of melanoma cells from patients noted GIC. The measure of cell viability as performed by cell counting using the trypan blue exclusion method. Results were expressed as the percentage of cells alive relatively to the number of living cells in the presence of DMSO, which corresponds to the negative control associated to the 100% value. Cells were seeded in 6-well plates (60000 cells/well), depleted and incubated with compounds for the times indicated. Then cells were detached in the presence of 2000 of […] (Thermo) and 2 ml of RPMI 1640 Glutamax (Gibco) was added to the cell solution. 100 of this solution was stained for 1 minute with 100 of 0.4% trypan blue before counting with a Malassez chamber. The effect of compound on cell viability was studied on different types of cells. […] Cancer cells from prostate, breast, colon and melanoma A375 came from cell lines cultures. […] Results are expressed as percentage of cells alive relatively to the number of living cells in the presence of DMSO, which corresponds to the negative control associated to the 100% value. […]

[1] = system: metastatic melanoma cell line A375; test: Trypan blue cell viability, A375; type: cell-based; settings: 10 μM, A375, trypan blue exclusion, FIG. 1
breast cells MCF7 = test: Trypan blue cell viability, MCF7; type: cell-based; settings: 10 μM, MCF7, trypan blue exclusion, FIG. 1
Method: as §1

[2] = system: melanoma cells from patients GIC; test: Trypan blue cell viability, patient melanoma cells GIC; type: cell-based, human; settings: 10 μM, trypan blue exclusion, FIG. 1
Method: Cell viability was assessed by measuring the number of cells alive in samples of two different kind of prostate cells, respectively noted LNCAP and PC3, of breast cells noted MCF7, of colon cells noted HT29, of metastatic melanoma cell lines A375 and of melanoma cells from patients noted GIC. The measure of cell viability as performed by cell counting using the trypan blue exclusion method. Results were expressed as the percentage of cells alive relatively to the number of living cells in the presence of DMSO, which corresponds to the negative control associated to the 100% value. Patient melanoma cells were prepared from biopsy after digestion for 1-2 h with collagenase A (0.33 U/ml), dispase (0.85 U/ml) and Dnase I (144 U/ml) at 37° C. Large debris were removed by filtration through a […] cell strainer. Cells were seeded in 6-well plates (60000 cells/well), depleted and incubated with compounds for the times indicated. Then cells were detached in the presence of 2000 of […] (Thermo) and 2 ml of RPMI 1640 Glutamax (Gibco) was added to the cell solution. 100 of this solution was stained for 1 minute with 100 of 0.4% trypan blue before counting with a Malassez chamber. […] Results are expressed as percentage of cells alive relatively to the number of living cells in the presence of DMSO, which corresponds to the negative control associated to the 100% value. […]

prostate cells LNCAP = test: Trypan blue cell viability, LNCAP; type: cell-based; settings: 10 μM, trypan blue exclusion, FIG. 1
Method: as §1

prostate cells PC3 = test: Trypan blue cell viability, PC3; type: cell-based; settings: 10 μM, PC3, trypan blue exclusion, FIG. 1
Method: as §1

Measured: cell viability (cells alive relative to DMSO)

CC(=O)Nc1nc(-c2cccc(NS(=O)(=O)c3cccc4c(N(C)C)cccc34)c2)cs1 [HA15, N-(4-(3-(5-(dimethylamino)naphthalene-1-sulfonamido)phenyl)thiazol-2-yl)acetamide]
viability greatly reduced: all assays above
